Several values for one entry are separate records, joined by “and”; a condition that tells them apart may be missing. Equal entries are not always repeated.
Assay: xn = mol fraction of the nth substance listed

CC(Cl)(Cl)Cl + CCCOCCC
298.15 K, 101.33 kPa
Conditions	viscosity [mPa·s]
x1 = 0.101	0.4245
x1 = 0.198	0.4478
x1 = 0.299	0.4745
x1 = 0.398	0.5036
x1 = 0.5	0.5365
x1 = 0.601	0.5733
x1 = 0.7	0.6147
x1 = 0.8	0.6632
x1 = 0.85	0.6907

CC(Cl)(Cl)Cl + CCO
viscosity [mPa·s], 101.32 kPa
Conditions	x2 = 0.1602	x2 = 0.3002	x2 = 0.4237	x2 = 0.5336	x2 = 0.6318	x2 = 0.7202	x2 = 0.8001	x2 = 0.8728	x2 = 0.9392
303.15 K	0.705	0.745	0.778	0.839	0.87	0.902	0.924	0.942	0.984
313.15 K	0.614	0.669	0.683	0.71	0.745	0.761	0.784	0.807	0.819
323.15 K	0.56	0.597	0.604	0.614	0.639	0.655	0.664	0.684	0.692

CC(Cl)(Cl)Cl + CCOC(C)=O
Conditions	viscosity [mPa·s]
298.15 K, 101.33 kPa, x1 = 0.098	0.4485
298.15 K, 101.33 kPa, x1 = 0.197	0.4712
298.15 K, 101.33 kPa, x1 = 0.297	0.4964
298.15 K, 101.33 kPa, x1 = 0.398	0.5244
298.15 K, 101.33 kPa, x1 = 0.498	0.5554
298.15 K, 101.33 kPa, x1 = 0.598	0.5901
298.15 K, 101.33 kPa, x1 = 0.699	0.6295
298.15 K, 101.33 kPa, x1 = 0.771	0.665
298.15 K, 101.33 kPa, x1 = 0.885	0.7192
303.15 K, 101.3 kPa, x2 = 0.1006	0.6668
303.15 K, 101.3 kPa, x2 = 0.1989	0.6158
303.15 K, 101.3 kPa, x2 = 0.2986	0.5731
303.15 K, 101.3 kPa, x2 = 0.4038	0.5366
303.15 K, 101.3 kPa, x2 = 0.4965	0.5101
303.15 K, 101.3 kPa, x2 = 0.5999	0.4831
303.15 K, 101.3 kPa, x2 = 0.7003	0.4579
303.15 K, 101.3 kPa, x2 = 0.7974	0.4366
303.15 K, 101.3 kPa, x2 = 0.9008	0.4167

CCCCCCCCn1cc[n+](C)c1.[Cl][Fe-]([Cl])([Cl])[Cl] + CCOC(C)=O
viscosity [mPa·s], 101 kPa
Conditions	x1 = 0.0999	x1 = 0.197	x1 = 0.2987	x1 = 0.3989	x1 = 0.4986	x1 = 0.6004	x1 = 0.6958	x1 = 0.7939	x1 = 0.8777
293.15 K	1.47	3.56	7.5	13.82	23.21	37.15	58.2	85.97	111.8
298.15 K	1.38	3.24	6.65	11.97	19.68	30.95	47.6	69.55	91.12
303.15 K	1.29	2.97	5.94	10.48	16.88	26.07	39.75	56.28	73.83
308.15 K	1.21	2.72	5.33	9.22	14.61	22.2	33.32	46.86	59.83
313.15 K	1.14	2.52	4.81	8.17	12.77	19.08	28.28	39.4	49.32
318.15 K	1.07	2.33	4.37	7.31	11.24	16.49	24.27	33.42	41.48
323.15 K	1.02	2.16	3.99	6.6	9.97	14.4	20.98	28.43	35.08

O=CO + CN(C)C=O
303.15 K, 101 kPa
Conditions	viscosity [mPa·s]
x1 = 0.1513	0.848
x1 = 0.2841	0.986
x1 = 0.4038	1.16
x1 = 0.6144	1.45
x1 = 0.7869	1.58
x1 = 0.8657	1.58

CNC[C@H](O)c1cccc(O)c1.Cl + CO
viscosity [mPa·s], 100 kPa
Conditions	293.15 K	298.15 K	303.15 K	308.15 K	313.15 K	318.15 K	323.15 K
x1 = 0.00048	0.6061	0.5699	0.5374	0.4992	0.4719	0.4428	0.4161
x1 = 0.00096	0.6213	0.5836	0.5482	0.5108	0.4839	0.4485	0.4228
x1 = 0.00144	0.6373	0.593	0.5581	0.5213	0.4935	0.4539	0.4302
x1 = 0.00192	0.6534	0.6059	0.5687	0.5404	0.5059	0.466	0.433
x1 = 0.0024	0.6642	0.6216	0.5828	0.5593	0.5182	0.4782	0.4357

O=CO + CO
303.15 K, 101 kPa
Conditions	viscosity [mPa·s]
x1 = 0.0714	0.573
x1 = 0.1463	0.609
x1 = 0.2264	0.641
x1 = 0.3137	0.658
x1 = 0.4031	0.677
x1 = 0.506	0.691
x1 = 0.6149	0.75
x1 = 0.7328	0.867
x1 = 0.8604	1.062

CC(Cl)(Cl)Cl + COC(C)=O
Conditions	viscosity
298.15 K, 101.33 kPa, x1 = 0.1	0.3907 mPa·s
298.15 K, 101.33 kPa, x1 = 0.101	0.3907 mPa·s
298.15 K, 101.33 kPa, x1 = 0.198	0.4156 mPa·s
298.15 K, 101.33 kPa, x1 = 0.199	0.4157 mPa·s
298.15 K, 101.33 kPa, x1 = 0.297	0.4438 mPa·s
298.15 K, 101.33 kPa, x1 = 0.3	0.445 mPa·s
298.15 K, 101.33 kPa, x1 = 0.398	0.4763 mPa·s
298.15 K, 101.33 kPa, x1 = 0.401	0.4774 mPa·s
298.15 K, 101.33 kPa, x1 = 0.499	0.513 mPa·s
298.15 K, 101.33 kPa, x1 = 0.5	0.5132 mPa·s and 0.5114 mPa·s
298.15 K, 101.33 kPa, x1 = 0.599	0.5525 mPa·s and 0.5545 mPa·s
298.15 K, 101.33 kPa, x1 = 0.699	0.6024 mPa·s
298.15 K, 101.33 kPa, x1 = 0.799	0.6574 mPa·s
298.15 K, 101.33 kPa, x1 = 0.901	0.7178 mPa·s
303.15 K, 101.3 kPa, x2 = 0.0993	0.6661 mPa·s
303.15 K, 101.3 kPa, x2 = 0.2042	0.6072 mPa·s
303.15 K, 101.3 kPa, x2 = 0.3008	0.5599 mPa·s
303.15 K, 101.3 kPa, x2 = 0.4008	0.5182 mPa·s
303.15 K, 101.3 kPa, x2 = 0.5039	0.4792 mPa·s
303.15 K, 101.3 kPa, x2 = 0.6038	0.4462 mPa·s
303.15 K, 101.3 kPa, x2 = 0.6968	0.4186 mPa·s
303.15 K, 101.3 kPa, x2 = 0.7992	0.3921 mPa·s
303.15 K, 101.3 kPa, x2 = 0.902	0.3668 mPa·s

CC(Cl)(Cl)Cl + COCC(C)O
298.15 K, 101.33 kPa
Conditions	viscosity [mPa·s]
x1 = 0.101	1.508
x1 = 0.2	1.362
x1 = 0.3	1.232
x1 = 0.4	1.119
x1 = 0.501	1.021
x1 = 0.601	0.9385
x1 = 0.7	0.8715
x1 = 0.72	0.8596
x1 = 0.837	0.8044
x1 = 0.908	0.785

CCCC[N+](CCCC)(CCCC)CCCC.[OH-] + CS(C)=O
viscosity [mPa·s], 100 kPa
Conditions	298.15 K	303.15 K	308.15 K	313.15 K
x1 = 0.0159	2.19	2.01	1.87	1.77
x1 = 0.0368	2.43	2.31	2.19	2.12
x1 = 0.0632	2.72	2.58	2.47	2.38
x1 = 0.0911	3.02	2.88	2.77	2.7
x1 = 0.1206	3.32	3.18	3.08	3
x1 = 0.1519	3.65	3.5	3.4	3.33
x1 = 0.2183	4.25	4.13	4.07	4.02
x1 = 0.2907	4.86	4.75	4.69	4.65
x1 = 0.3787	5.51	5.38	5.33	5.29
x1 = 0.4429	5.92	5.79	5.73	5.69
x1 = 0.5298	6.4	6.26	6.17	6.13
x1 = 0.6052	6.71	6.56	6.45	6.42
x1 = 0.6947	6.97	6.82	6.67	6.62
x1 = 0.7486	7.03	6.88	6.74	6.7
x1 = 0.8273	7.07	6.93	6.77	6.7
x1 = 0.8964	7	6.85	6.69	6.54
x1 = 0.9481	6.86	6.7	6.53	6.42
x1 = 0.9765	6.76	6.61	6.42	6.32

CC(Cl)(Cl)Cl + C[N+](=O)[O-]
298.15 K, 101.33 kPa
Conditions	viscosity [mPa·s]
x1 = 0.101	0.6114
x1 = 0.201	0.6128
x1 = 0.251	0.6165
x1 = 0.301	0.622
x1 = 0.351	0.6284
x1 = 0.4	0.6356
x1 = 0.451	0.6435
x1 = 0.5	0.6518
x1 = 0.55	0.6607
x1 = 0.551	0.6609
x1 = 0.6	0.6702
x1 = 0.65	0.6803
x1 = 0.651	0.6805
x1 = 0.7	0.6912
x1 = 0.749	0.703
x1 = 0.812	0.7202
x1 = 0.867	0.7375

O=C(O)CC(O)(CC(=O)O)C(=O)O + C[N+](C)(C)CCO.[Cl-]
viscosity [mPa·s], x2 = 0.5
Conditions	298 K	303 K	313 K	323 K
101 kPa	–	2085000	510000	–
101.3 kPa	14480	–	–	2242

O=C(O)CC(O)(CC(=O)O)C(=O)O + C[N+](C)(C)Cc1ccccc1.[Cl-]
Conditions	viscosity [mPa·s]
323.1 K, 101 kPa, x2 = 0.5	88750

CCCCCBr + Cc1cc(C)cc(C)c1
308.15 K, 101 kPa
Conditions	viscosity [mPa·s]
x2 = 0.1098	0.6376
x2 = 0.2005	0.6292
x2 = 0.2983	0.6179
x2 = 0.4035	0.6093
x2 = 0.4979	0.6042
x2 = 0.6027	0.5945
x2 = 0.802	0.5739
x2 = 0.8481	0.5719
x2 = 0.9023	0.5699

CC(Cl)(Cl)Cl + Cc1ccc(C)cc1
303.15 K, 101 kPa
Conditions	viscosity [mPa·s]
x1 = 0.1341	0.6079
x1 = 0.2166	0.632
x1 = 0.3072	0.6566
x1 = 0.4291	0.6846
x1 = 0.5112	0.6988
x1 = 0.6202	0.7113
x1 = 0.69	0.7164
x1 = 0.7824	0.7206
x1 = 0.8403	0.7216
x1 = 0.9044	0.7226

— the CheMixHub viscosity set
